From patent publication US8173636B2, “Hydroxylthienoquinolones and related compounds as anti-infective agents” (Achillion Pharmaceuticals, Inc., priority 2009, dated 2012)
Values after ≈ are worked out from the molar mass of the structure shown.

Assays:
S. aureus ATCC 29213 = assay: Minimum inhibitory concentration (MIC) assay, broth microdilution, MSSA; format: cell-based; settings: Staphylococcus aureus, Table I
Protocol: (§1) The antimicrobial activity of the compounds of the invention may be evaluated by a number of methods, including the following visual minimum inhibitory concentration (MIC) assay. This assay determines the minimum concentration of compound required to inhibit growth of a bacterial strain.
(§2) Whole-cell antibacterial activity is determined by broth microdilution using conditions recommended by the NCCLS (see National Committee for Clinical Laboratory Standards. 2001. Performance standards for antimicrobial susceptibility testing: 11th informational supplement. Vol. 21, no. 1, M100-S11. National Committee for Clinical Laboratory Standards, Wayne, Pa.). Test compounds are dissolved in DMSO and diluted 1:50 in Mueller-Hinton II broth (Becton-Dickinson) to produce a 256 μg/ml stock solution. In a 96-well microtiter plate, the compound solution is serially two-fold diluted in Mueller-Hinton II broth. After the compounds are diluted, a 50 μl aliquot of the test organism (˜1×10^6 cfu/mL) is added to each well of the microtiter plate. The final test concentrations ranges from 0.125-128 μg/mL. Inoculated plates are incubated in ambient air at 37° C. for 18 to 24 hours. The organisms selected for testing included laboratory strains S. aureus ATCC 29213 and E. coli ATCC 25922 (strains purchased from American Type Culture Collection, Manassas, Va.) m, S. aureus FQR700699, and Paeruginosa 27853. The minimum inhibitory concentration (MIC) is determined as the lowest concentration of compound that inhibited visible growth of the test organism.

[1] = system: fluoroquinolone-resistant S. aureus ATCC 700699; assay: Minimum inhibitory concentration (MIC) assay, broth microdilution, MRSA; format: cell-based; settings: Staphylococcus aureus; fluoroquinolone-resistant S. aureus ATCC 700699; Table I; read-out: MRSA MIC
Protocol: as §1, §2

| Structure (SMILES) | MIC (S. aureus ATCC 29213) [µg/mL] | MIC [1] [µg/mL] |
| --- | --- | --- |
| COc1c(N2C[C@@H]3CCCN[C@@H]3C2)c(F)cc2c(=O)c3c(O)c(C#N)sc3n(C3CC3)c12 [Cmp 38, 9-cyclopropyl-6-fluoro-3-hydroxyl-8-methoxy-4-oxo-7-((4aS,7aS)-tetrahydro-1H-pyrrolo[3,4-b]pyridin-6(2H,7H,7aH)-yl)-4,9-dihydrothieno[2,3-b]quinoline-2-carbonitrile] | 0.5 (≈ 1.1 µM) | 8 (≈ 17.6 µM) |
| CO/N=C1\CN(c2c(F)cc3c(=O)c4c(O)c(C#N)sc4n(C4CC4)c3c2OC)CC1CN (stereo not shown) [Cmp 39, (Z)-7-(3-(aminomethyl)-4-(methoxyimino)pyrrolidin-1-yl)-9-cyclopropyl-6-fluoro-3-hydroxyl-8-methoxy-4-oxo-4,9-dihydrothieno[2,3-b]quinoline-2-carbonitrile] | 0.13 (≈ 0.276 µM) | 1 (≈ 2.12 µM) |
| COc1c(C2=CCNCC2)c(F)cc2c(=O)c3c(O)c(C#N)sc3n(C3CC3)c12 [Cmp 40] | 0.5 (≈ 1.22 µM) | 4 (≈ 9.72 µM) |
| COc1c(N2CC3CC2CN3)c(F)cc2c(=O)c3c(O)c(C#N)sc3n(C3CC3)c12 (stereo not shown) [Cmp 41, 7-(2,5-diazabicyclo[2.2.1]heptan-2-yl)-9-cyclopropyl-6-fluoro-3-hydroxyl-8-methoxy-4-oxo-4,9-dihydrothieno [2,3-b]quinoline-2-carbonitrile] | 0.13 (≈ 0.305 µM) | 1 (≈ 2.34 µM) |
| COc1c(N2C[C@H]3CNC[C@H]3C2)c(F)cc2c(=O)c3c(O)c(C#N)sc3n(C3CC3)c12 [Cmp 42, 9-cyclopropyl-6-fluoro-7-((3aR,6aS)-hexahydropyrrolo [3,4-c]pyrrol-2(1H)-yl)-3-hydroxyl-8-methoxy-4-oxo-4,9-dihydrothieno[2,3-b]quinoline-2-carbonitrile] | 0.25 (≈ 0.568 µM) | 1 (≈ 2.27 µM) |

Continued, values first:

| MIC (S. aureus ATCC 29213) [µg/mL] | MIC [1] [µg/mL] | Structure (SMILES) |
| --- | --- | --- |
| 0.03 (≈ 0.0657 µM) | 0.25 (≈ 0.548 µM) | COc1c(N2CCCC(C(N)=O)C2)c(F)cc2c(=O)c3c(O)c(C#N)sc3n(C3CC3)c12 (stereo not shown) [Cmp 37, 1-(2-cyano-9-cyclopropyl-6-fluoro-3-hydroxyl-8-methoxy-4-oxo-4,9-dihydrothieno[2,3-b]quinolin-7-yl)piperidine-3-carboxamide] |
| 1 (≈ 2.08 µM) | 8 (≈ 16.6 µM) | COc1c(N2CCC(C(F)(F)F)CC2)c(F)cc2c(=O)c3c(n(C4CC4)c12)SC(C#N)C3=O (stereo not shown) [Cmp 43, 9-cyclopropyl-6-fluoro-8-methoxy-3,4-dioxo-7-(4-(trifluoromethyl)piperidin-1-yl)-2,3,4,9-tetrahydrothieno [2,3-b]quinoline-2-carbonitrile] |
| 0.02 (≈ 0.0429 µM) | 0.13 (≈ 0.279 µM) | COc1c(N2CC[C@@H](c3ncn[nH]3)C2)c(F)cc2c(=O)c3c(n(C4CC4)c12)SC(C#N)C3=O (stereo partly drawn) [Cmp 44, 7-((R)-3-(1H-1,2,4-triazol-5-yl)pyrrolidin-1-yl)-9-cyclopropyl-6-fluoro-8-methoxy-3,4-dioxo-2,3,4,9-tetrahydrothieno [2,3-b]quinoline-2-carbonitrile] |
| 0.03 (≈ 0.0657 µM) | 0.5 (≈ 1.1 µM) | COc1c(N2CCC(C(N)=O)CC2)c(F)cc2c(=O)c3c(n(C4CC4)c12)SC(C#N)C3=O (stereo not shown) [Cmp 45, 1-(2-cyano-9-cyclopropyl-6-fluoro-8-methoxy-3,4-dioxo-2,3,4,9-tetrahydrothieno[2,3-b]quinolin-7-yl)piperidine-4-carboxamide] |
| 4 (≈ 9.04 µM) | 64 (≈ 145 µM) | COc1c(N2CCC[C@H]2C(N)=O)c(F)cc2c(=O)c3c(n(C4CC4)c12)SC(C#N)C3=O (stereo partly drawn) [Cmp 46, (2S)-1-(2-cyano-9-cyclopropyl-6-fluoro-8-methoxy-3,4-dioxo-2,3,4,9-tetrahydrothieno[2,3-b]quinolin-7-yl)pyrrolidine-2-carboxamide] |
| 1 (≈ 2.5 µM) | 4 (≈ 9.99 µM) | C[C@H]1COc2c(N3CCNCC3)c(F)cc3c(=O)c4c(n1c23)SC(C#N)C4=O (stereo partly drawn) [Cmp 47, (1S)-5-fluoro-1-methyl-7,8-dioxo-4-(piperazin-1-yl)-2,7,8,9-tetrahydro-1H-[1,4]oxazino[2,3,4-ij]thieno[2,3-b] quinoline-9-carbonitrile] |
